From US11364209B2, “Methods and compositions for treating atopic dermatitis” (Golden Biotechnology Corporation, priority 2016, dated 2022)

What was measured:
[1] = Metabolite obtained from urine of rats fed with Compound 1; format: in vivo; settings: urine samples of rats fed with Compound 1
Procedure: Compound 27 was determined to be 4-hydroxy-2,3-dimethoxy-6-methyl-5-(3-methyl-2-hexenoic acid)cyclohex-2-enone with molecular weight of 312 (C16 H24O6). Compound 25 which was determined as 2,3-dimethoxy-5-methyl-6-((2E,6E)-3,7,11-trimethyldodeca-2,6,10-trienyl)cyclohexa-2,5-diene-1,4-dione (molecular weight of 386.52, C24 H34 O4), was obtained from the purification process.

[2] = Outside-in animal model (OVA-sensitized mice): body weight and clinical signs; format: in vivo; settings: oral doses
Procedure: BALC/c female rat in 6-8-week old is used. Each group has 6-8 rats. Blood sample was taken from the cheek of rat before sensitization. On day 1 and day 8, mice were injected intraperitoneally with 50 μg/mice of OVA-aluminum hydroxide (1:1 v/v). The mice were epicutaneously sensitized with OVA patches on day 15. OVA (100 μg) prepared in PBS was contained in a 2×2-cm patch of sterile gauze that was placed on the shaved backs of mice and secured to the skin with 3 M Tegader film followed by 3 M Coban tape to secure the gauze. After 3 days, the gauze was removed and reapplied. The procedure was repeated three times. Day 27, all the mice in the study was sacrificed and examined.
days 1 and 8 were injected OVA (sensitization), day 15 applied OVA gauze for 3 days (challenge) and rested one day. The application of OVA gauze procedure was repeated 3 times. Starting on day 14, the mice in the group were fed water.
Same procedure as group O except the mice were fed low dose (5 mg/kg BW) of exemplary compound 1.
Same procedure as group O except the mice were fed medium dose (15 mg/kg BW) of exemplary compound 1.
Same procedure as group O except the mice were fed high dose (45 mg/kg BW) of exemplary compound 1.

[3] = all treatment groups, through the study period

Row | metabolite found in urine [1] | Compound | body weight change between all treatment groups ([2]; FIG. 1) | loss in body weight [2, 3] | observed clinical signs [2, 3]
1 | a metabolite of compound 1 | COC1=C(OC)C(O)C(C/C=C(\C)CCC(=O)O)C(C)C1=O (stereo not shown) [Compound 27] | – | – | –
2 | – | COC1=C(OC)C(O)C(C/C=C(\C)CC/C=C(\C)CCC=C(C)C)C(C)C1=O (stereo not shown) [Compound 1, 4-hydroxy-2,3-dimethoxy-6-methyl-5-(3,7,11-trimethyldodeca-2,6,10-trienyl)cyclohex-2-enone] | no significant difference | did not lead to any loss in body weight | did not lead to any loss in body weight or any observed clinical signs
